# From PubChem BioAssay AID252 (DTP/NCI, 2004)
# “And” between values parts separate entries of the source, which are not always exact repeats. Equal values may be shown once. Inconclusive results and toxic doses are left out.
# Tested on: BDF1 mice, intracerebral L1210 leukemia, survival T/C
# Assay: NCI In Vivo Anticancer Drug Screen. Data for tumor model L1210 Leukemia (intracerebral) in B6D2F1 (BDF1) mice
# Settings: higher = longer survival
# Method in brief: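 Antitumour effect is judged in mice with transplanted tumour by comparing survival of treated (T) against vehicle-dosed (C) groups as T/C.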
# [1] = endpoint: mean survival time, dose: 12.0 mg/kg/injection, schedule: Q01DX001 (ip), vehicle: carboxymethylcellulose (CMC)
# [2] = endpoint: mean survival time, dose: 18.0 mg/kg/injection, schedule: Q01DX001 (ip), vehicle: carboxymethylcellulose (CMC)
# [3] = endpoint: mean survival time, dose: 62.0 mg/kg/injection, schedule: Q01DX001 (ip), vehicle: other
# [4] = endpoint: mean survival time, dose: 125.0 mg/kg/injection, schedule: Q01DX001 (ip), vehicle: carboxymethylcellulose (CMC)
# [5] = endpoint: mean survival time, dose: 250.0 mg/kg/injection, schedule: Q01DX001 (ip), vehicle: carboxymethylcellulose (CMC)
# [6] = endpoint: mean survival time, dose: 500.0 mg/kg/injection, schedule: Q01DX001 (ip), vehicle: carboxymethylcellulose (CMC)
structure (smiles),measurement,setting,value
Nc1n[nH]c(N)n1,T/C,"endpoint: mean survival time, dose: 100.0 mg/kg/injection, schedule: Q03HX024 (ip), vehicle: saline",104 % of control and 97 % of control and 100 % of control
same,T/C,"endpoint: mean survival time, dose: 150.0 mg/kg/injection, schedule: Q03HX024 (ip), vehicle: saline",102 % of control and 104 % of control and 99 % of control
same,T/C,"endpoint: mean survival time, dose: 225.0 mg/kg/injection, schedule: Q01DX Z (ip), vehicle: saline",104 % of control
same,T/C,"endpoint: mean survival time, dose: 225.0 mg/kg/injection, schedule: Q03HX024 (ip), vehicle: saline",102 % of control and 108 % of control and 110 % of control
same,T/C,"endpoint: mean survival time, dose: 335.0 mg/kg/injection, schedule: Q03HX024 (ip), vehicle: saline",109 % of control and 119 % of control and 121 % of control
same,T/C,"endpoint: mean survival time, dose: 375.0 mg/kg/injection, schedule: Q01DX Z (ip), vehicle: saline",108 % of control
same,T/C,"endpoint: mean survival time, dose: 500.0 mg/kg/injection, schedule: Q03HX024 (ip), vehicle: saline",109 % of control and 122 % of control
same,T/C,"endpoint: mean survival time, dose: 750.0 mg/kg/injection, schedule: Q01DX Z (ip), vehicle: saline",98 % of control
COc1cccc2c1C(=O)c1c(O)c3c(c(O)c1C2=O)C[C@@](O)(C(C)=O)C[C@@H]3OC1CC(N)C(O)C(C)O1 (stereo partly drawn),T/C,"endpoint: mean survival time, dose: 1.08 mg/kg/injection, schedule: Q04DX003 (ip), vehicle: water",101 % of control
same,T/C,"endpoint: mean survival time, dose: 1.8 mg/kg/injection, schedule: Q04DX003 (ip), vehicle: water",101 % of control
same,T/C,"endpoint: mean survival time, dose: 3.0 mg/kg/injection, schedule: Q04DX003 (ip), vehicle: water",97 % of control
same,T/C,"endpoint: mean survival time, dose: 3.12 mg/kg/injection, schedule: Q01DX001 (ip), vehicle: water",102 % of control
same,T/C,"endpoint: mean survival time, dose: 5.0 mg/kg/injection, schedule: Q04DX003 (ip), vehicle: water",102 % of control
same,T/C,"endpoint: mean survival time, dose: 6.25 mg/kg/injection, schedule: Q01DX001 (ip), vehicle: water",97 % of control
same,T/C,"endpoint: mean survival time, dose: 12.5 mg/kg/injection, schedule: Q01DX001 (ip), vehicle: water",91 % of control
same,T/C,"endpoint: mean survival time, dose: 25.0 mg/kg/injection, schedule: Q01DX001 (ip), vehicle: water",96 % of control
same,T/C,"endpoint: median survival time, dose: 1.08 mg/kg/injection, schedule: Q04DX003 (ip), vehicle: water",97 % of control
same,T/C,"endpoint: median survival time, dose: 1.8 mg/kg/injection, schedule: Q04DX003 (ip), vehicle: water",96 % of control
same,T/C,"endpoint: median survival time, dose: 3.0 mg/kg/injection, schedule: Q04DX003 (ip), vehicle: water",96 % of control
same,T/C,"endpoint: median survival time, dose: 5.0 mg/kg/injection, schedule: Q04DX003 (ip), vehicle: water",96 % of control
same,T/C,"endpoint: median survival time, dose: 8.4 mg/kg/injection, schedule: Q04DX003 (ip), vehicle: water",95 % of control
O=C1C(NCCO)=C(N2CC2)C(=O)C(NCCO)=C1N1CC1,T/C,"endpoint: mean survival time, dose: 0.18 mg/kg/injection, schedule: Q01DX009 (ip), vehicle: saline",108 % of control and 116 % of control
same,T/C,"endpoint: mean survival time, dose: 0.37 mg/kg/injection, schedule: Q01DX009 (ip), vehicle: saline",114 % of control
same,T/C,"endpoint: mean survival time, dose: 1.5 mg/kg/injection, schedule: Q01DX009 (ip), vehicle: saline",98 % of control
CCOC(=O)c1ccc(NC(=O)N(CCCl)N=O)cc1,T/C,"endpoint: mean survival time, dose: 4.0 mg/kg/injection, schedule: Q01DX001 (ip), vehicle: carboxymethylcellulose (CMC)",108 % of control
same,T/C,"endpoint: mean survival time, dose: 6.0 mg/kg/injection, schedule: Q01DX001 (ip), vehicle: carboxymethylcellulose (CMC)",107 % of control
same,T/C,"endpoint: mean survival time, dose: 9.0 mg/kg/injection, schedule: Q01DX001 (ip), vehicle: carboxymethylcellulose (CMC)",108 % of control
same,T/C,"endpoint: mean survival time, dose: 13.5 mg/kg/injection, schedule: Q01DX001 (ip), vehicle: carboxymethylcellulose (CMC)",113 % of control
N=[N+]=CC(=O)OCC(N)C(=O)O (stereo not drawn),T/C,"endpoint: mean survival time, dose: 43.0 mg/kg/injection, schedule: Q01DX001 (ip), vehicle: saline",104 % of control
same,T/C,"endpoint: mean survival time, dose: 66.0 mg/kg/injection, schedule: Q01DX001 (ip), vehicle: saline",101 % of control
O=NN(CCCl)C(=O)Nc1ccc(SCC(=O)O)cc1,T/C,[1],95 % of control
same,T/C,[2],96 % of control
same,T/C,"endpoint: mean survival time, dose: 26.0 mg/kg/injection, schedule: Q01DX001 (ip), vehicle: carboxymethylcellulose (CMC)",88 % of control
O=NN(CCCl)C(=O)Nc1cccc(C(=O)O)c1,T/C,"endpoint: mean survival time, dose: 8.0 mg/kg/injection, schedule: Q01DX001 (ip), vehicle: carboxymethylcellulose (CMC)",95 % of control
same,T/C,[1],108 % of control
same,T/C,[2],106 % of control
CCC(=O)NC1=C(N2CC2)C(=O)C(NC(=O)CC)=C(N2CC2)C1=O,T/C,"endpoint: mean survival time, dose: 0.5 mg/kg/injection, schedule: Q01DX009 (ip), vehicle: saline",105 % of control
same,T/C,"endpoint: mean survival time, dose: 2.0 mg/kg/injection, schedule: Q01DX009 (ip), vehicle: saline",117 % of control
Cc1c(O)ccc(=O)n1O,T/C,"endpoint: mean survival time, dose: 49.0 mg/kg/injection, schedule: Q01DX Z (ip), vehicle: other",98 % of control
same,T/C,"endpoint: mean survival time, dose: 73.0 mg/kg/injection, schedule: Q01DX Z (ip), vehicle: other",96 % of control
same,T/C,"endpoint: mean survival time, dose: 110.0 mg/kg/injection, schedule: Q01DX Z (ip), vehicle: other",93 % of control
same,T/C,"endpoint: mean survival time, dose: 165.0 mg/kg/injection, schedule: Q01DX Z (ip), vehicle: other",110 % of control
same,T/C,"endpoint: mean survival time, dose: 247.0 mg/kg/injection, schedule: Q01DX Z (ip), vehicle: other",92 % of control
CCOC(=O)C1(NC(=O)N(CCCl)N=O)CCCCC1,T/C,[3],110 % of control
same,T/C,"endpoint: mean survival time, dose: 250.0 mg/kg/injection, schedule: Q01DX001 (ip), vehicle: other",192 % of control and 200 % of control
same,T/C,"endpoint: mean survival time, dose: 500.0 mg/kg/injection, schedule: Q01DX001 (ip), vehicle: other",190 % of control and 196 % of control
same,T/C,"endpoint: mean survival time, dose: 750.0 mg/kg/injection, schedule: Q01DX001 (ip), vehicle: other",215 % of control
same,T/C,"endpoint: mean survival time, dose: 1000.0 mg/kg/injection, schedule: Q01DX001 (ip), vehicle: other",156 % of control
CCCCn1cnc2c(SC3CCCC3)ncnc21,T/C,[4],101 % of control
same,T/C,[5],108 % of control
same,T/C,[6],119 % of control
CCn1cnc2c(SC3CCCC3)ncnc21,T/C,"endpoint: mean survival time, dose: 30.0 mg/kg/injection, schedule: Q01DX015 (ip), vehicle: carboxymethylcellulose (CMC)",118 % of control
same,T/C,"endpoint: mean survival time, dose: 62.0 mg/kg/injection, schedule: Q01DX015 (ip), vehicle: carboxymethylcellulose (CMC)",124 % of control
same,T/C,"endpoint: mean survival time, dose: 62.0 mg/kg/injection, schedule: Q01DX Z (ip), vehicle: carboxymethylcellulose (CMC)",118 % of control
same,T/C,[4],106 % of control
same,T/C,"endpoint: mean survival time, dose: 125.0 mg/kg/injection, schedule: Q01DX015 (ip), vehicle: carboxymethylcellulose (CMC)",123 % of control
same,T/C,"endpoint: mean survival time, dose: 200.0 mg/kg/injection, schedule: Q01DX009 (ip), vehicle: carboxymethylcellulose (CMC)",103 % of control
same,T/C,[5],112 % of control
same,T/C,"endpoint: mean survival time, dose: 250.0 mg/kg/injection, schedule: Q01DX Z (ip), vehicle: carboxymethylcellulose (CMC)",164 % of control
same,T/C,"endpoint: mean survival time, dose: 375.0 mg/kg/injection, schedule: Q01DX015 (ip), vehicle: carboxymethylcellulose (CMC)",169 % of control
same,T/C,"endpoint: mean survival time, dose: 400.0 mg/kg/injection, schedule: Q01DX009 (ip), vehicle: carboxymethylcellulose (CMC)",200 % of control
same,T/C,[6],108 % of control
same,T/C,"endpoint: mean survival time, dose: 500.0 mg/kg/injection, schedule: Q01DX Z (ip), vehicle: carboxymethylcellulose (CMC)",98 % of control
same,T/C,"endpoint: mean survival time, dose: 1000.0 mg/kg/injection, schedule: Q01DX001 (ip), vehicle: carboxymethylcellulose (CMC)",120 % of control
O=NN(CCF)C(=O)NC1CSCSC1,T/C,"endpoint: mean survival time, dose: 3.7 mg/kg/injection, schedule: Q01DX001 (ip), vehicle: other",111 % of control
same,T/C,"endpoint: mean survival time, dose: 7.0 mg/kg/injection, schedule: Q01DX001 (ip), vehicle: other",120 % of control and 123 % of control
same,T/C,"endpoint: mean survival time, dose: 15.0 mg/kg/injection, schedule: Q01DX001 (ip), vehicle: other",163 % of control
same,T/C,"endpoint: mean survival time, dose: 28.0 mg/kg/injection, schedule: Q01DX001 (ip), vehicle: other",176 % of control
same,T/C,"endpoint: mean survival time, dose: 31.0 mg/kg/injection, schedule: Q01DX001 (ip), vehicle: other",177 % of control and 278 % of control
same,T/C,"endpoint: mean survival time, dose: 41.0 mg/kg/injection, schedule: Q01DX001 (ip), vehicle: other",291 % of control
same,T/C,[3],290 % of control and 337 % of control
O=C1NC2(CCCCC2)C(=O)N1CCN(CCCl)CCCl,T/C,"endpoint: mean survival time, dose: 0.78 mg/kg/injection, schedule: Q01DX009 (ip), vehicle: saline",101 % of control
same,T/C,"endpoint: mean survival time, dose: 1.56 mg/kg/injection, schedule: Q01DX009 (ip), vehicle: saline",89 % of control
same,T/C,"endpoint: mean survival time, dose: 3.12 mg/kg/injection, schedule: Q01DX009 (ip), vehicle: saline",95 % of control
same,T/C,"endpoint: mean survival time, dose: 6.25 mg/kg/injection, schedule: Q01DX009 (ip), vehicle: saline",102 % of control
same,T/C,"endpoint: mean survival time, dose: 12.5 mg/kg/injection, schedule: Q01DX009 (ip), vehicle: saline",91 % of control
NC(C/[N+]([O-])=N/O)C(=O)O (stereo not drawn),T/C,"endpoint: mean survival time, dose: 25.0 mg/kg/injection, schedule: Q01DX009 (ip), vehicle: other",96 % of control
same,T/C,"endpoint: mean survival time, dose: 50.0 mg/kg/injection, schedule: Q01DX001 (ip), vehicle: other",97 % of control
same,T/C,"endpoint: mean survival time, dose: 50.0 mg/kg/injection, schedule: Q01DX009 (ip), vehicle: other",98 % of control
same,T/C,"endpoint: mean survival time, dose: 100.0 mg/kg/injection, schedule: Q01DX001 (ip), vehicle: other",98 % of control
same,T/C,"endpoint: mean survival time, dose: 100.0 mg/kg/injection, schedule: Q01DX009 (ip), vehicle: other",91 % of control
same,T/C,"endpoint: mean survival time, dose: 200.0 mg/kg/injection, schedule: Q01DX001 (ip), vehicle: other",101 % of control
same,T/C,"endpoint: mean survival time, dose: 400.0 mg/kg/injection, schedule: Q01DX001 (ip), vehicle: other",106 % of control
